Among the data in PubChem BioAssay (NCI) are GI50 and TGI values, retold here.

Test systems include RXF 393 renal; EKVX NSCLC; SR leukemia; A498 renal; SK-OV-3 ovarian; UACC-62 melanoma; HCC-2998 colon.
What all share (assay): NCI tumour cell line growth inhibition, 48 h

Structures are written as SMILES.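 Compound exposure: 48 hours, 5 concentrations, 96-well plates. At the GI50, growth is halved. Definition used: TGI = concentration required for complete inhibition of growth.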

Consider `CCC[CH2][Sn]([CH2]CCC)([CH2]CCC)/[C](=C/[Si](C)(C)c1ccccc1)c1ccc2c(c1)OCO2`, for which the GI50 was 22.1 µM with RXF 393 renal; 15.2 µM in the assay on EKVX NSCLC; 8.61 µM in the assay with SR leukemia; 30.5 µM in the assay on A498 renal; 18.5 µM with SK-OV-3 ovarian. In addition, the TGI was 41.2 µM in the assay on RXF 393 renal; 50.7 µM in the assay on EKVX NSCLC; 63.9 µM with SR leukemia; 70.6 µM in the assay with A498 renal; 41 µM in the assay on SK-OV-3 ovarian.

Regarding `CC12CCC(=O)C(O1)C1C(=O)c3ccc4c(ccc5ccccc54)c3C(=O)C12` (stereo unspecified), the TGI in the assay on RXF 393 renal was 2.03 µM; with UACC-62 melanoma, 2.86 µM; in the assay on EKVX NSCLC, 19 µM; with A498 renal, 5.83 µM; in the assay on SK-OV-3 ovarian, > 39.1 µM. Besides, the GI50 with UACC-62 melanoma is 1.46 µM; with EKVX NSCLC, 8.47 µM; with A498 renal it was 3.08 µM; in the assay with SK-OV-3 ovarian it was 11.5 µM.

On to `CCCCC#Cc1c(I)n(C2OC(CO[Si](C)(C)C(C)(C)C)C3OC(C)(C)OC32)c(=O)n(C(=O)c2ccccc2)c1=O` (stereo unspecified), for which the GI50 is 11 µM in the assay with RXF 393 renal; 17.7 µM with UACC-62 melanoma; 18.5 µM in the assay with EKVX NSCLC; 1.69 µM in the assay on SR leukemia; 30.9 µM with A498 renal; 14.8 µM with SK-OV-3 ovarian. Further, the TGI in the assay with RXF 393 renal stood at 23.9 µM; in the assay with UACC-62 melanoma it was 32.2 µM; in the assay on EKVX NSCLC, 38.9 µM; in the assay on SR leukemia, 9.35 µM; in the assay with A498 renal it was 98.3 µM; in the assay on SK-OV-3 ovarian it was 27.9 µM.

With `CCCCCCCC(=O)[O-].CCCCCCCC(=O)[O-].N.N.N.N.[Co+3].[O-][Cl+3]([O-])([O-])[O-]`, the GI50 is 74.6 µM in the assay on RXF 393 renal; > 100 µM with HCC-2998 colon; > 100 µM with UACC-62 melanoma; > 100 µM with EKVX NSCLC; 69.9 µM with SR leukemia; > 100 µM in the assay with SK-OV-3 ovarian. Moreover, the TGI in the assay with RXF 393 renal, in the assay on HCC-2998 colon, in the assay on UACC-62 melanoma, in the assay on EKVX NSCLC, with SR leukemia and in the assay with SK-OV-3 ovarian was > 100 µM each time.

In the case of `O=C1CS/C(=N/S(=O)(=O)c2ccc(N3N=C4c5ccccc5CC4C3c3cccs3)cc2)N1C(=O)c1ccccc1` (stereo unspecified), the GI50 in the assay on RXF 393 renal is 90.7 µM; in the assay on HCC-2998 colon it was 17.6 µM; in the assay with UACC-62 melanoma it was 23.2 µM; in the assay on EKVX NSCLC it was 42.4 µM; in the assay with A498 renal, 23.6 µM; in the assay with SK-OV-3 ovarian, > 100 µM. The TGI with RXF 393 renal is > 100 µM; with HCC-2998 colon, 46.6 µM; in the assay with UACC-62 melanoma, 58.4 µM; in the assay on EKVX NSCLC, > 100 µM; with A498 renal it was 94.6 µM; with SK-OV-3 ovarian, > 100 µM.

Take `CCCCCCCCCCCNC=O`: the TGI was > 100 µM in the assay on RXF 393 renal; 86.1 µM in the assay on HCC-2998 colon; > 100 µM with UACC-62 melanoma; > 100 µM with EKVX NSCLC; 86.7 µM with A498 renal; > 100 µM with SK-OV-3 ovarian.

Take `COc1cc(Cl)c(CC(=O)c2c[nH]c3ccccc23)cc1OC`: the TGI is 40.9 µM in the assay with RXF 393 renal; > 100 µM in the assay with UACC-62 melanoma; > 100 µM in the assay on EKVX NSCLC; > 100 µM with SR leukemia; > 59.4 µM in the assay on A498 renal; 40 µM with SK-OV-3 ovarian.

Take `CC(C)=Cc1cc(C)c2ccc(C)c3c2c1C(C)=C(O)C3=O`: the GI50 in the assay with RXF 393 renal is 41.9 µM; in the assay with HCC-2998 colon it was 18 µM; in the assay with UACC-62 melanoma, 19.8 µM; in the assay on EKVX NSCLC, 40.8 µM; in the assay on SR leukemia, 1.46 µM; in the assay with SK-OV-3 ovarian it was 27.4 µM. The TGI in the assay on RXF 393 renal is > 100 µM; in the assay on HCC-2998 colon, 37.4 µM; in the assay with UACC-62 melanoma, 46.7 µM; with EKVX NSCLC it was > 100 µM; in the assay on SR leukemia, 4.17 µM; in the assay on SK-OV-3 ovarian it was 81.2 µM.

Regarding `CC(C)=Cc1cc(CCC/C(C)=C/Cc2c(O)cc(C)c(C(=O)O)c2O)co1`, the TGI with HCC-2998 colon, in the assay on UACC-62 melanoma and with EKVX NSCLC was > 100 µM in each case.

Take `CC12OC(C(=O)C13CC3)C1C(=O)c3c(O)ccc(O)c3C(=O)C12` (stereo unspecified): the GI50 was 16.7 µM in the assay on RXF 393 renal, 11.9 µM with HCC-2998 colon, 12.1 µM in the assay with EKVX NSCLC and 24.6 µM in the assay on SK-OV-3 ovarian. Further, the TGI in the assay with RXF 393 renal came out at 37.6 µM; with HCC-2998 colon it was 27.4 µM; in the assay with EKVX NSCLC it was 48.3 µM; with SK-OV-3 ovarian, 78 µM.

Take `COc1ccc(C2NN=C3c4ccccc4CCC32)cc1` (stereo unspecified): the GI50 with RXF 393 renal is 23.1 µM; in the assay on HCC-2998 colon it was 12.4 µM; with UACC-62 melanoma, 8.34 µM; in the assay with EKVX NSCLC, 1.4 µM; in the assay on A498 renal, 19.4 µM; in the assay with SK-OV-3 ovarian, 20.4 µM. Moreover, the TGI in the assay on RXF 393 renal is > 100 µM; in the assay on HCC-2998 colon, > 100 µM; in the assay on UACC-62 melanoma, > 100 µM; in the assay with EKVX NSCLC, 29.3 µM; with A498 renal, 65 µM; in the assay with SK-OV-3 ovarian, > 100 µM.

Consider `C=C(C(=O)OC)[C@@H]1CC2OC1C(=O)C(C)CCC/C(C)=C/CC[C@@]2(C)O` (stereo partly specified), for which the GI50 was 18 µM in the assay on RXF 393 renal; 26.1 µM in the assay with UACC-62 melanoma; 63.2 µM in the assay on EKVX NSCLC; 5.1 µM in the assay on SR leukemia; 37.2 µM with A498 renal; > 100 µM in the assay with SK-OV-3 ovarian. Besides, the TGI is 36.4 µM in the assay with RXF 393 renal; 74.9 µM with UACC-62 melanoma; > 100 µM in the assay on EKVX NSCLC; 25.1 µM with SR leukemia; 96.8 µM with A498 renal; > 100 µM with SK-OV-3 ovarian.

For `CC(=O)c1c[nH]c2ccc(-c3ccnc(Nc4ccc(NC(=O)C5CCCC5)c(CN5CCOCC5)c4)n3)cc12`, the GI50 is 0.0114 µM with RXF 393 renal; 0.0444 µM in the assay on HCC-2998 colon; 0.0205 µM with UACC-62 melanoma; 0.0382 µM with EKVX NSCLC; 0.0204 µM in the assay with A498 renal; 0.0454 µM in the assay with SK-OV-3 ovarian. In addition, the TGI in the assay with RXF 393 renal is 0.036 µM; with HCC-2998 colon, 0.6 µM; in the assay with UACC-62 melanoma it was 0.0481 µM; in the assay on EKVX NSCLC, 0.457 µM; in the assay with A498 renal, 0.0558 µM; in the assay with SK-OV-3 ovarian it was > 100 µM.

Consider `COc1ccc2c(c1O)[C@@]13CCCC=C1[C@@H](C2)[N+](C)(C)CC3`, for which the TGI in the assay with RXF 393 renal, with HCC-2998 colon, with UACC-62 melanoma, in the assay on EKVX NSCLC and with SK-OV-3 ovarian was > 100 µM each time.
